According to patent US9682995B2, “Amino-substituted isothiazoles” (BAYER PHARMA AKTIENGESELLSCHAFT, priority 2013, dated 2017):

Key:
human kinase Mps-1 = human kinase Mps-1 (Homo sapiens (Human), UniProt P33981); assay: Mps-1 kinase assay (TR-FRET); type: biochemical; conditions: 10 μM ATP; read-out: Mps1 avg (IC50 [mol/l])
Outline: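 GST-tagged full-length human Mps-1 (~0.5 nM) preincubated 15 min with compound, then reacted 60 min at 22 °C with 10 μM ATP and 1 μM biotinylated peptide in Hepes pH 7.7 buffer. Phosphoproduct detected by TR-FRET (Eu anti-phospho-Ser/Thr, SA-XLent); 665/620 ratio normalised to no-inhibitor and no-enzyme controls.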

human Bub1 = human Bub1 (Homo sapiens (Human), UniProt O43683); assay: Bub1 kinase assay (TR-FRET); type: biochemical; conditions: 10 μM ATP; read-out: Bub1 avg (IC50 [mol/l])
Outline: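 His6-tagged human Bub1 catalytic domain (aa 704-1085, insect-cell expressed, ~200 ng/ml) preincubated with compound 15 min, then reacted 60 min at 22 °C with 10 μM ATP and 1 μM biotinylated peptide (final) in pH 7.5 Tris buffer. Phosphopeptide detected by TR-FRET 665/620 ratio, normalised to no-inhibitor and no-enzyme controls.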

Chain of human kinase Mps-1 (P33981 whole entry): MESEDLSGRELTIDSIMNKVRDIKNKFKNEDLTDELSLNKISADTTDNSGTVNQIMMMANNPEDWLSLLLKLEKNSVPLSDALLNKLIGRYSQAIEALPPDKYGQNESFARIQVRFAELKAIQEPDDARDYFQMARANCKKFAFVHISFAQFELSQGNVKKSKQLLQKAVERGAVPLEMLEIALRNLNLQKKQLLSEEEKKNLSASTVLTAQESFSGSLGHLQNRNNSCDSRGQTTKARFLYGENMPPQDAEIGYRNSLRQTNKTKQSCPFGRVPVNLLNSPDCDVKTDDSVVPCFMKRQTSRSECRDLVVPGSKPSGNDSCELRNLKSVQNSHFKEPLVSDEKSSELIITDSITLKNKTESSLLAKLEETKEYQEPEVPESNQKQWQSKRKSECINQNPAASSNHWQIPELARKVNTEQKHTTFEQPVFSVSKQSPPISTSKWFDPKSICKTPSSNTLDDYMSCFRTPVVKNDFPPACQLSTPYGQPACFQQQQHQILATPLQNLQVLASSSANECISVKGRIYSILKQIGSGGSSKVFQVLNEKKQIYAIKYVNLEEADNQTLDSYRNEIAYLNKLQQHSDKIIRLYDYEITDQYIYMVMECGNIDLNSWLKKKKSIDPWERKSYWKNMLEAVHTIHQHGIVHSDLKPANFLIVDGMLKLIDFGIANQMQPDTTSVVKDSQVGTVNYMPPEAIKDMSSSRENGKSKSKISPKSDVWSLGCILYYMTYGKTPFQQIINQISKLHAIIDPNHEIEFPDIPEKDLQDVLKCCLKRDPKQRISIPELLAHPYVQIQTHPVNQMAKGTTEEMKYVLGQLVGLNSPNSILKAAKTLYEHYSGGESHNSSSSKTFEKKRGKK
Chain of human Bub1 (O43683 704-1085): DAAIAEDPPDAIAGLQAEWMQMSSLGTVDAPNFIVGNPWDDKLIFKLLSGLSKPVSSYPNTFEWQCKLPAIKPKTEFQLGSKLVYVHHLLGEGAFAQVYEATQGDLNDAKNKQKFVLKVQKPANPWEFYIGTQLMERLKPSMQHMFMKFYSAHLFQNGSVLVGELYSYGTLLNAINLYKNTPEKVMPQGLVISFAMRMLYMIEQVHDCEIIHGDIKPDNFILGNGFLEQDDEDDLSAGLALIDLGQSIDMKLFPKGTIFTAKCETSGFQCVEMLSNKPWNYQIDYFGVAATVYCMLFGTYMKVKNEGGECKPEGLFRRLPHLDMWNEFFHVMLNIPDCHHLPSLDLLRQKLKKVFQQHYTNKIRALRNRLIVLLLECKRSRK

Structure (SMILES)	IC50 (human kinase Mps-1) [µM]	IC50 (human Bub1) [µM]
Cc1nsc(Nc2ccc(C#N)cn2)c1C(=O)Nc1ccc(F)c(F)c1 [Example 28, 5-[(5-Cyanopyridin-2-yl)amino]-N-(3,4-difluorophenyl)-3-methyl-1,2-thiazole-4-carboxamide]	> 20	> 20
Cc1nsc(Nc2nc3c(C(F)(F)F)ccnc3s2)c1C(=O)Nc1ccc(Cl)c(F)c1 [Example 103, N-(4-Chloro-3-fluorophenyl)-3-methyl-5-{[7-(trifluoromethyl)[1,3]thiazolo[5,4-b]pyridin-2-yl]amino}-1,2-thiazole-4-carboxamide]	> 20	> 20
Cc1nsc(Nc2nc3c(C(F)(F)F)cccc3s2)c1C(=O)Nc1ccc(Cl)c(Cl)c1 [Example 102, N-(3,4-Dichlorophenyl)-3-methyl-5-{[4-(trifluoromethyl)-1,3-benzothiazol-2-yl]amino}-1,2-thiazole-4-carboxamide]	> 20	> 20
COC(=O)c1cnc(Nc2snc(C)c2C(=O)Nc2ccc(OC)nc2)cn1 [Example 32, Methyl 5-({4-[(6-methoxypyridin-3-yl)carbamoyl]-3-methyl-1,2-thiazol-5-yl}amino)-pyrazine-2-carboxylate]	> 20	> 20
CCc1ccccc1NC(=O)c1c(C)nsc1Nc1cnc2cccc(C)c2n1 [Example 33, N-(2-Ethylphenyl)-3-methyl-5-[(8-methylquinoxalin-2-yl)amino]-1,2-thiazole-4-carboxamide]	> 20	> 20
CCc1ccccc1NC(=O)c1c(C)nsc1Nc1ccnc(C#N)n1 [Example 6, 5-[(2-Cyanopyrimidin-4-yl)amino]-N-(2-ethylphenyl)-3-methyl-1,2-thiazole-4-carboxamide]	> 20	> 20
COc1ccc(NC(=O)c2c(C)nsc2Nc2cnc3ccc(F)cc3n2)cn1 [Example 44, 5-[(7-Fluoroquinoxalin-2-yl)amino]-N-(6-methoxypyridin-3-yl)-3-methyl-1,2-thiazole-4-carboxamide]	> 20	> 20
Cc1nsc(Nc2nc3c(C(F)(F)F)cccc3s2)c1C(=O)Nc1ccc(Cl)c(F)c1 [Example 53, N-(4-Chloro-3-fluorophenyl)-3-methyl-5-{[4-(trifluoromethyl)-1,3-benzothiazol-2-yl]amino}-1,2-thiazole-4-carboxamide]	> 20	> 20
CNC(=O)c1ccnc(Nc2snc(C)c2C(=O)Nc2ccc(F)c(F)c2)c1 [Example 108, 2-({4-[(3,4-Difluorophenyl)-carbamoyl]-3-methyl-1,2-thiazol-5-yl}amino)-N-methyliso-nicotinamide]	> 20	> 20
Cc1nsc(Nc2cnc(C(=O)N(C)C)cn2)c1C(=O)Nc1ccc(F)c(F)c1 [Example 109, 5-({4-[(3,4-Difluorophenyl)carbamoyl]-3-methyl-1,2-thiazol-5-yl}amino)-N,N-dimethylpyrazine-2-carboxamide]	> 20	> 20

Further lines, results first:

IC50 (human kinase Mps-1) [µM]	IC50 (human Bub1) [µM]	Structure (SMILES)
> 20	> 20	Cc1nsc(Nc2cncc(C(=O)N(C)C)n2)c1C(=O)Nc1ccc(F)c(F)c1 [Example 104, 6-({4-[(3,4-Difluorophenyl)-carbamoyl]-3-methyl-1,2-thiazol-5-yl}amino)-N,N-dimethyl-pyrazine-2-carboxamide]
> 20	> 20	CCOC(=O)c1cnc(Nc2snc(C)c2C(=O)Nc2ccc(F)c(F)c2)o1 [Example 96, Ethyl 2-({4-[(3,4-difluorophenyl)carbamoyl]-3-methyl-1,2-thiazol-5-yl}amino)-1,3-oxazole-5-carboxylate]
> 20	> 20	COc1ccc(NC(=O)c2c(C)nsc2Nc2cccc(C#N)n2)cn1 [Example 37, 5-[(6-Cyanopyridin-2-yl)amino]-N-(6-methoxypyridin-3-yl)-3-methyl-1,2-thiazole-4-carboxamide]
> 20	> 20	Cc1nsc(Nc2cc(C#N)ccn2)c1C(=O)Nc1ccc(OC2CCCCC2)nc1 [Example 118, 5-[(4-Cyanopyridin-2-yl)amino]-N-[6-(cyclohexyloxy)pyridin-3-yl]-3-methyl-1,2-thiazole-4-carboxamide]
> 20	> 20	COc1ccc(NC(=O)c2c(C)nsc2Nc2ccc(C#N)cn2)cn1 [Example 39, 5-[(5-Cyanopyridin-2-yl)amino]-N-(6-methoxypyridin-3-yl)-3-methyl-1,2-thiazole-4-carboxamide]
> 20	> 20	CCc1ccccc1NC(=O)c1c(C)nsc1Nc1ncnc2ccsc12 [Example 13, N-(2-Ethylphenyl)-3-methyl-5-(thieno[3,2-d]pyrimidin-4-ylamino)-1,2-thiazole-4-carboxamide]
> 20	> 20	CCc1ccccc1NC(=O)c1c(C)nsc1Nc1ncnc2sccc12 [Example 12, N-(2-Ethylphenyl)-3-methyl-5-(thieno[2,3-d]pyrimidin-4-ylamino)-1,2-thiazole-4-carboxamide]
> 20	> 20	Cc1nsc(Nc2cc(C#N)ccn2)c1C(=O)Nc1ccc(F)c(F)c1 [Example 27, 5-[(4-Cyanopyridin-2-yl)amino]-N-(3,4-difluorophenyl)-3-methyl-1,2-thiazole-4-carboxamide]
> 20	> 20	CCc1ccccc1NC(=O)c1c(C)nsc1Nc1cnc2ccccc2n1 [Example 19, N-(2-Ethylphenyl)-3-methyl-5-(quinoxalin-2-ylamino)-1,2-thiazole-4-carboxamide]
> 20	> 20	COc1ccc(NC(=O)c2c(C)nsc2Nc2nc3c(C(F)(F)F)cccc3s2)cn1 [Example 48, N-(6-Methoxypyridin-3-yl)-3-methyl-5-{[4-(trifluoromethyl)-1,3-benzothiazol-2-yl]-amino}-1,2-thiazole-4-carboxamide]
> 20	> 20	CCOC(=O)c1sc(Nc2snc(C)c2C(=O)Nc2ccccc2CC)nc1C [Example 26, Ethyl 2-({4-[(2-ethylphenyl)carbamoyl]-3-methyl-1,2-thiazol-5-yl}amino)-4-methyl-1,3-thiazole-5-carboxylate]
3.6	> 20	COc1ccc(Oc2ccc(NC(=O)c3c(C)nsc3Nc3cnc4ccccc4n3)cn2)cc1 [Example 116, N-[6-(4-Methoxyphenoxy)pyridin-3-yl]-3-methyl-5-(quinoxaline-2-ylamino)-1,2-thiazole-4-carboxamide]
